These results are taken from ChEMBL document CHEMBL1250454, “Oral oxytocin antagonists” (J Med Chem, 2010).

For data set [1], the target named is T1, Vasopressin V1a receptor (Homo sapiens, UniProt P37288). The experiment in a line: Displacement of [3H]vasopressin from human vasopressin V1a receptor expressed in CHO cells at 10 uM. Background: In a radioligand displacement assay an active substance lowers the binding of a labelled ligand.
Target sequence in this assay (P37288 whole entry, looked up): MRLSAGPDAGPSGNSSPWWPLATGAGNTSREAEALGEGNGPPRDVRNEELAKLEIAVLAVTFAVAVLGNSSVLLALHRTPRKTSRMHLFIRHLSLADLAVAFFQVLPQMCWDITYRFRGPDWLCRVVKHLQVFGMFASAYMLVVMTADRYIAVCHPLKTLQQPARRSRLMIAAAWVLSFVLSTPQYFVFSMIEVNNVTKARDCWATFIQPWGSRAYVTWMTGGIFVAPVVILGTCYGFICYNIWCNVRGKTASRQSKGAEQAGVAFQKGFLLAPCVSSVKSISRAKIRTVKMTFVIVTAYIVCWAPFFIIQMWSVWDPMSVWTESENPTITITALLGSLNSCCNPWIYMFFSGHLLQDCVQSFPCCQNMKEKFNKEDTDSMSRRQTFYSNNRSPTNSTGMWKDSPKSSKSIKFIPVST
The species named for data set [2] is Homo sapiens. The experiment in a line: Selectivity ratio of Ki for human oxytocin receptor Ki for human vasopressin V1a receptor.
Data set [3] has as its system Rattus norvegicus. Kind of data set: Inhibition of oxytocin-induced uterine contraction in iv dosed non-pregnant anaesthetized rat. It counts as functional.
Data set [4] has as its target T2, Vasopressin V1b receptor (Homo sapiens, UniProt P47901).
T2 sequence (P47901 whole entry): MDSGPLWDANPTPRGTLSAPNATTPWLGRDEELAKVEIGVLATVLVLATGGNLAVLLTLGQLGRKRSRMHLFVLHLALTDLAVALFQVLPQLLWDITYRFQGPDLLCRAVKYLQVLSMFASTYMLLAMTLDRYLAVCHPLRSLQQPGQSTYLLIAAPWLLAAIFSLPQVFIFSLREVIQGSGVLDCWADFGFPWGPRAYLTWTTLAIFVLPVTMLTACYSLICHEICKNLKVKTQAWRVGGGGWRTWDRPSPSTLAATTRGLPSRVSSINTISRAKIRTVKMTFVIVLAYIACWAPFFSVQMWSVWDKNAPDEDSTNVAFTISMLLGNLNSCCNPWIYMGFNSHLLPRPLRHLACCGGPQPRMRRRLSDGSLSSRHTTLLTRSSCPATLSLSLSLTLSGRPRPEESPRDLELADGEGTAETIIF
The experiment in a line: Displacement of [3H]vasopressin from human vasopressin V1b receptor expressed in CHO cells. It counts as cell-based.

Data set [5] concerns the target T3, Vasopressin V2 receptor (Homo sapiens, UniProt P30518). Kind of data set: Displacement of [3H]vasopressin from human vasopressin V2 receptor expressed in CHO cells. It counts as cell-based.
Data set [6] addresses T1, Vasopressin V1a receptor. Kind of data set: Displacement of [3H]vasopressin from human vasopressin V1a receptor expressed in CHO cells at 10 uM. Format: cell-based.
Data set [7] has as its target T4, Oxytocin receptor (Homo sapiens, UniProt P30559).
T4 sequence (P30559 whole entry): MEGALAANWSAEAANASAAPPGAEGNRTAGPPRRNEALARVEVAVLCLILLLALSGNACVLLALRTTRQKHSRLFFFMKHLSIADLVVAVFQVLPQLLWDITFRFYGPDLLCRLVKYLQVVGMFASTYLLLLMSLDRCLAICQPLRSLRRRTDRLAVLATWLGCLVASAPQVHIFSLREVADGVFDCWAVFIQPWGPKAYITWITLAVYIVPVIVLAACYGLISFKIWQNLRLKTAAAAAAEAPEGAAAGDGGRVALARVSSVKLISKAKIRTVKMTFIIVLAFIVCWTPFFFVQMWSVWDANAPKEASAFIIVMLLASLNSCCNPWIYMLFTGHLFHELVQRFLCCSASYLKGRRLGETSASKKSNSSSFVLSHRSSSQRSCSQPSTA
Kind of data set: Displacement of [3H]-oxytocin from human oxytocin receptor expressed in HEK293-EBNA cells. Format: cell-based.

For data set [8], the target named is T3, Vasopressin V2 receptor. Kind of data set: Displacement of [3H]vasopressin from human vasopressin V2 receptor.
Data set [9] addresses T1, Vasopressin V1a receptor. Kind of data set: Displacement of [3H]vasopressin from human vasopressin V1a receptor.
Target sequence in this assay (P37288 whole entry): as the sequence (P37288 whole entry, looked up) above
The target in data set [10] is T2, Vasopressin V1b receptor. Kind of data set: Displacement of [3H]vasopressin from human vasopressin V1b receptor.
In data set [11] the target is T5, Oxytocin receptor (Rattus norvegicus, UniProt P70536).
T5 sequence (P70536 whole entry): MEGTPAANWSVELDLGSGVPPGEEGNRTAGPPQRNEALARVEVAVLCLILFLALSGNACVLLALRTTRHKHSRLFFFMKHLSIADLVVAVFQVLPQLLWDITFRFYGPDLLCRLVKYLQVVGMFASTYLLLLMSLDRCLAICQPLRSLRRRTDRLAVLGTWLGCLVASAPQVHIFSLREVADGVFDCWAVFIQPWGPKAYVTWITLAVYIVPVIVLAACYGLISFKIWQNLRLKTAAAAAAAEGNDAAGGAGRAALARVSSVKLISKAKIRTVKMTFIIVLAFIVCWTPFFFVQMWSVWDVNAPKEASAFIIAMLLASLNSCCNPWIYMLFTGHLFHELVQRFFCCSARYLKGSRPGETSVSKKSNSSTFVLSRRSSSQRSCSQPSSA
Kind of data set: Displacement of [3H]-oxytocin from rat oxytocin receptor expressed in HEK293-EBNA cells. It counts as cell-based.

Data set [12] can be described thus: Aqueous solubility of the compound at pH 5. Format: physicochemical.
For data set [13], the system named is Rattus norvegicus. The experiment in a line: Inhibition of oxytocin-induced uterine contraction in non-pregnant anaesthetized rat at 30 mg/kg, po. It counts as functional.
For data set [14], the species on record is Homo sapiens. The experiment in a line: Selectivity ratio of Ki for human oxytocin receptor Ki for human vasopressin V1b receptor.
Data set [15] deals with Rattus norvegicus. Kind of data set: Inhibition of oxytocin-induced uterine contraction in long-term pregnant anaesthetized rat at 30 mg/kg, po. Format: functional. To be noted: read-out: INH.
For data set [16], the species on record is Homo sapiens. Kind of data set: Selectivity ratio of Ki for human oxytocin receptor Ki for human vasopressin V2 receptor.
For data set [17], the target named is T4, Oxytocin receptor. Kind of data set: Displacement of [3H]-oxytocin from human oxytocin receptor expressed in CHO cells. It counts as cell-based.
The nature of data set [18]: Oral bioavailability in rat. Format: ADME, organism-based. The conditions noted are these: in vivo.

T3 sequence (P30518 whole entry): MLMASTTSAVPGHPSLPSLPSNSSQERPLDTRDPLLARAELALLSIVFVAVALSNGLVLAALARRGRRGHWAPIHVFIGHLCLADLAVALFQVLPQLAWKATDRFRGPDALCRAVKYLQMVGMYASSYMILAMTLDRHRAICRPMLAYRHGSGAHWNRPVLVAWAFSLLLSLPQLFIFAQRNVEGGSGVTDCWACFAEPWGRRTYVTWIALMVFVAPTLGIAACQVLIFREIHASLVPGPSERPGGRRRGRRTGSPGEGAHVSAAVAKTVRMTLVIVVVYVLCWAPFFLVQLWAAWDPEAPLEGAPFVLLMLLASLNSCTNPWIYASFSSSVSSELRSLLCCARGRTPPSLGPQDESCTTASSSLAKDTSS

For orientation: inhibition means the share of the control response that was lost under treatment. At Vasopressin V1a receptor [1], `O=C(CN(c1ccccc1)S(=O)(=O)c1ccccc1)N/N=C1\C(=O)Nc2ccccc21` showed an inhibition of under 50%.
One may read the ED50 as the dose that gives a 50% effect, or the effect in half of the subjects. A higher ED50 goes with weaker potency. Consider `CCOc1ccc(S(=O)(=O)N(CC(=O)N/N=C2\C(=O)Nc3ccccc32)c2ccc(C)cc2)cc1`, for which the Ratio Ki in the data set listed under Homo sapiens [2] is 100. The same compound had an ED50 in the data set on Rattus norvegicus [3] of 10 mg/kg.
As usually defined, the Ki is a measure of affinity in units of concentration, obtained from inhibition or displacement. Low readings indicate higher affinity, high ones lower affinity. Consider `COc1ccc(-n2c(C)nnc2-c2ccc(-c3ccccc3OC)cc2)cn1`, for which the Ki on Vasopressin V1b receptor [4] was over 10000 nM; at Vasopressin V2 receptor [5] it was 500 nM; on Vasopressin V1a receptor [6] it was 525 nM; on Oxytocin receptor [7], 56 nM.
`CC(C)C[C@@H]1C(=O)N[C@H](C2Cc3ccccc3C2)C(=O)N1[C@@H](C(=O)NC(C)C)c1ccc(N(C)C)cc1`: the figures for the Ki at Vasopressin V2 receptor [8], on Vasopressin V1a receptor [9] and at Vasopressin V1b receptor [10] were over 79400 nM, over 39800 nM and over 50100 nM, respectively.
Usually solubility stands for how much of the substance goes into solution per volume. A low value points to little dissolved substance. `CCOc1ccc(S(=O)(=O)N(CC(=O)NN=C2C(=O)Nc3ccccc32)c2ccc(C)cc2)cc1`: the Ki is 2500 nM on Vasopressin V1b receptor [4] and 25 nM at Oxytocin receptor [11]. Moreover, the solubility in data set [12] is under 1 µg/mL.
With `CC(C)C[C@@H]1C(=O)N[C@H](C2Cc3ccccc3C2)C(=O)N1[C@@H](C(=O)NC(C)C)c1ccc(F)cc1F`, the Ki on Vasopressin V1a receptor [9] is 6310 nM; on Vasopressin V1b receptor [10], over 6310 nM.
For `CN(C)CCCNC(=O)CCc1ccc(S(=O)(=O)N(CC(=O)N/N=C2\C(=O)Nc3ccccc32)c2ccc(Cl)cc2)cc1`, the Ratio Ki in the data set filed under Homo sapiens [2] came out at 60; in the data set listed under Homo sapiens [14] it was 23000; in the data set filed under Homo sapiens [16] it was 580. The inhibition in vivo at 30 mg/kg in the data set on Rattus norvegicus [13] and in the data set with Rattus norvegicus [15] was 35% each time. The Ki on Vasopressin V1b receptor [4] stood at 377 nM. For the same compound, in the data set on Rattus norvegicus [3], the ED50 was found to be 1.4 mg/kg.
Turning to `CC(C)C[C@@H]1C(=O)N[C@H](C2Cc3ccccc3C2)C(=O)N1[C@@H](C(=O)NC(C)C)c1ccc(F)cc1`, the Ratio Ki in the data set listed under Homo sapiens [2] was over 1500; in the data set listed under Homo sapiens [14] it was over 1500; in the data set listed under Homo sapiens [16], over 300. Also, the values for the Ki at Vasopressin V2 receptor [8], at Vasopressin V1a receptor [9] and at Vasopressin V1b receptor [10] were 1260 nM, over 6310 nM and over 6310 nM, respectively.
Broadly, the IC50 is the concentration that gives 50% inhibition. Low values mean greater potency, high ones weaker potency. In the case of `CO/N=C1\C[C@@H](C(=O)NCC(O)c2ccccc2)N(C(=O)c2ccc(-c3ccccc3)cc2)C1` (stereo partly specified), the inhibition on Vasopressin V1a receptor [6] was determined as 68%. At Oxytocin receptor [17], this compound had an IC50 of 260 nM.
Broadly, the bioavailability is dose-corrected exposure relative to a reference, in per cent. For the compound `CC[C@H](C)[C@@H]1C(=O)N[C@H](C2Cc3ccccc3C2)C(=O)N1[C@@H](C(=O)N1CCOCC1)c1coc(C)n1` [RETOSIBAN], in data set [18], the bioavailability is 100%.
